Results on 37 compounds are retold here after patent US8269043B2, “Bicyclic aryl sphingosine 1-phosphate analogs” (Biogen Idec MA Inc., priority 2008, dated 2012).

For one experiment, the system named is circulating lymphocytes. In words: Lymphopenia assay: circulating lymphocytes after oral gavage. The experiment is classed as in vivo. Particulars: C57bl/6 male mice, oral gavage 0.5 and 5 mg/kg in 30% HPCD, blood 5 and 24 hours after administration. On the procedure: Measurement of circulating lymphocytes: Compounds were dissolved in 30% HPCD. Mice (C57bl/6 male, 6-10 week-old) were administered 0.5 and 5 mg/kg of a compound via oral gavage. 30% HPCD was included as a negative control.
Blood was collected from the retro-orbital sinus 5 and 24 hours after drug administration under short isoflurane anesthesia. Whole blood samples were subjected to hematology analysis. Peripheral lymphocyte counts were determined using an automated analyzer (HEMAVET™ 3700). Three mice were used to assess the lymphocyte depletion activity of each compound screened.
Compounds of formula (I) induced full lymphopenia at times as short as 3 hours or less to as long as 48 hours or more; for example, 4 to 36 hours, or 5 to 24 hours. In some cases, a compound of formula induced full lymphopenia at 5 hours and partial lymphopenia at 24 hours. The dosage required to induce lymphopenia can be in the range of, e.g., 0.001 mg/kg to 100 mg/kg; or 0.01 mg/kg to 10 mg/kg. The dosage can be 10 mg/kg or less, such as 5 mg/kg or less, 1 mg/kg or less, or 0.1 mg/kg or less
`C[C@](N)(CO)c1ccc2cc(O[C@H]3C[C@H](COCc4ccccc4)C3)ccc2c1` (relative stereo) [Example 76]: the “Lymphopenia (ED50 mg/kg)” value was 0.5 to 5 mg/kg. On the same count and under the same terms, to `C[C@](N)(CO)c1ccc2cc(O[C@H]3C[C@@H](COCc4ccccc4)C3)ccc2c1` (relative stereo) [Example 77] belongs under 0.5 mg/kg; to `CCC(C)(C)[C@H]1CC[C@H](Oc2ccc3cc([C@@](C)(N)CO)ccc3c2)CC1` (relative stereo) [Example 78, (R)-2-Amino-2-[6-(4-trans-tert-pentylcyclohexyloxy)naphthalen-2-yl]propan-1-ol], 0.5 to 5 mg/kg.

As for `CCC(C)(C)[C@H]1CC[C@@H](Oc2ccc3cc([C@@](C)(N)CO)ccc3c2)CC1` (relative stereo) [Example 79, (R)-2-Amino-2-[6-(4-cis-tert-pentylcyclohexyloxy)naphthalen-2-yl]propan-1-ol], the “Lymphopenia (ED50 mg/kg)” value was over 5 mg/kg. Turning to `C[C@](N)(CO)c1ccc2c(C(F)(F)F)c(O[C@H]3C[C@H](COCc4ccccc4)C3)ccc2c1` (relative stereo) [Example 82], the “Lymphopenia (ED50 mg/kg)” value is on record as under 0.5 mg/kg. The same measure, in the same setting: to `CC(C)(C)[C@H]1CC[C@H](Oc2ccc3cc([C@](C)(N)CO)ccc3c2C(F)(F)F)CC1` (relative stereo) [Example 124, (S)-2-amino-2-[6-(4-trans-tert-butyl-cyclohexyloxy)-5-trifluoromethyl-naphthalen-2-yl]-propan-1-ol] belongs over 5 mg/kg.

As for `CC(C)(C)[C@H]1CC[C@@H](Oc2ccc3cc([C@](C)(N)CO)ccc3c2C(F)(F)F)CC1` (relative stereo) [Example 128, (S)-2-amino-2-[6-(4-cis-tert-butyl-cyclohexyloxy)-5-trifluoromethyl-naphthalen-2-yl]-propan-1-ol], the “Lymphopenia (ED50 mg/kg)” value lay within 0.5 to 5 mg/kg.

Regarding `CC(C)(C)[C@H]1CC[C@H](Oc2ccc3cc([C@@](C)(N)CO)ccc3c2)CC1` [Example 25, (R)-2-amino-2-(6-(trans-4-tert-butylcyclohexyloxy)naphthalen-2-yl)propan-1-ol], the “Lymphopenia (ED50 mg/kg)” value is on record as over 5 mg/kg. The same measure, in the same setting: then `CC(C)(C)[C@H]1CC[C@H](Oc2ccc3cc([C@@](C)(N)CO)ccc3c2)CC1` [Example 49, (R)-2-amino-2-(6-(trans-4-tert-butylcyclohexyloxy)naphthalen-2-yl)propan-1-ol], with 0.4 mg/kg. Same read-out and setting: then `Cl.NC(CO)(CO)c1ccc2cc(O[C@H]3C[C@H](COCc4ccccc4)C3)ccc2c1` [Example 65], with under 0.5 mg/kg; and `Cl.NC(CO)(CO)c1ccc2cc(O[C@H]3C[C@@H](COCc4ccccc4)C3)ccc2c1` [Example 66], with under 0.5 mg/kg; and `NC(CO)(CO)c1ccc2c(C(F)(F)F)c(O[C@H]3C[C@H](COCc4ccccc4)C3)ccc2c1` [Example 73], with under 0.5 mg/kg.

For the compound `NC(CO)(CO)c1ccc2c(C(F)(F)F)c(O[C@H]3C[C@@H](COCc4ccccc4)C3)ccc2c1` [Example 74], the “Lymphopenia (ED50 mg/kg)” value is on record as under 0.5 mg/kg.

Staying with this experiment, now noted: Mus musculus, Lymphocyte, po, C57bl/6 male mice, oral gavage 0.5 and 5 mg/kg in 30% HPCD, blood 5 and 24 hours after administration.
For orientation: ED50 means the midpoint of the dose-response relation. `CC(CO)c1ccc2c(C(F)(F)F)c(O[C@H]3CC[C@H](C(C)(C)C)CC3)ccc2c1` (relative stereo) [Example 275, 2-[6-(trans-4-tert-Butyl-cyclohexyloxy)-5-trifluoromethyl-naphthalen-2-yl]-propan-1-ol]: the median effective dose (ED50) was over 5 mg/kg. As for `CC(N)(CO)c1ccc2c(C(F)(F)F)c(O[C@H]3CC[C@H](C(C)(C)C)CC3)ccc2c1` (relative stereo) [Example 276, 2-Amino-2-[6-(trans-4-tert-butyl-cyclohexyloxy)-5-trifluoromethyl-naphthalen-2-yl]-propan-1-ol], the ED50 is under 0.5 mg/kg. With `CCCC[C@H]1CC[C@@H](Oc2ccc3cc([C@@](C)(N)CO)ccc3c2)CC1` [Example 6, (R)-2-amino-2-(6-(cis-4-butylcyclohexyloxy)naphthalen-2-yl)propan-1-ol], the 50% effective dose (ED50) came out at 0.75 mg/kg.

`CCCCC1CCC(Oc2ccc3cc([C@@](C)(N)CO)ccc3c2)CC1` (stereo partly drawn) [Example 7, (R)-2-amino-2-(6-(4-butylcyclohexyloxy)naphthalen-2-yl)propan-1-ol]: the ED50 was under 0.5 mg/kg. Still for that read-out and setting: to `CCCC[C@H]1CC[C@H](Oc2ccc3cc([C@@](C)(N)CO)ccc3c2)CC1` [Example 8, (R)-2-amino-2-(6-(trans-4-butylcyclohexyloxy)naphthalen-2-yl)propan-1-ol] belongs under 0.5 mg/kg. As to `CCCC[C@H]1CC[C@@H](Oc2ccc3cc(C(N)(CO)CO)ccc3c2)CC1` [Example 14, 2-amino-2-(6-(cis-4-butylcyclohexyloxy)naphthalen-2-yl)propane-1,3-diol], the ED50 was over 5 mg/kg. On the same count and under the same terms, to `CCCC[C@H]1CC[C@@H](Oc2ccc3cc([C@@](C)(N)CO)ccc3c2C(F)(F)F)CC1` [Example 17, (R)-2-amino-2-(6-(cis-4-butylcyclohexyloxy)-5-(trifluoromethyl)naphthalen-2-yl)propan-1-ol] belongs 0.07 mg/kg. Still for that read-out and setting: to `C[C@](N)(CO)c1ccc2cc(O[C@H]3CC[C@@H](c4ccccc4)CC3)ccc2c1` [Example 30, (R)-2-amino-2-(6-(cis-4-phenylcyclohexyloxy)naphthalen-2-yl)propan-1-ol] belongs 0.5 to 5 mg/kg; to `CC1(C)CCC(Oc2ccc3cc([C@@](C)(N)CO)ccc3c2)CC1` [Example 47, (R)-2-amino-2-(6-(4,4-dimethylcyclohexyloxy)naphthalen-2-yl)propan-1-ol], over 5 mg/kg; to `C[C@](N)(CO)c1ccc2cc(OC3CCC4CCCCC4C3)ccc2c1` (stereo partly drawn) [Example 87, (R)-2-Amino-2-[6-(decahydro-naphthalen-2-yloxy)-naphthalen-2-yl]-propan-1-ol], 0.5 to 5 mg/kg.

`C[C@](N)(CO)c1ccc2cc(OC3CCC(C4CCCCC4)CC3)ccc2c1` (stereo partly drawn) [Example 89, (R)-2-Amino-2-[6-(bicyclohexyl-4-yloxy)-naphthalen-2-yl]-propan-1-ol] displayed a median effective dose (ED50) of 0.5 to 5 mg/kg. On the same count and under the same terms, then `CC(C)C1CCC(Oc2ccc3cc([C@@](C)(N)CO)ccc3c2)CC1` (stereo partly drawn) [Example 91, (R)-2-Amino-2-[6-(4-isopropyl-cyclohexyloxy)-naphthalen-2-yl]-propan-1-ol], with 0.5 to 5 mg/kg. The same measure, in the same setting: then `C[C@](N)(CO)c1ccc2cc(OC3CCC(C4CCCC4)CC3)ccc2c1` (stereo partly drawn) [Example 94, (R)-2-Amino-2-[6-(4-cyclopentyl-cyclohexyloxy)-naphthalen-2-yl]-propan-1-ol], with 0.5 to 5 mg/kg.

Compound `CCC(C)C1CCC(Oc2ccc3cc([C@@](C)(N)CO)ccc3c2)CC1` (stereo partly drawn) [Example 97, (R)-2-Amino-2-[6-(4-sec-butyl-cyclohexyloxy)-naphthalen-2-yl]-propan-1-ol] displayed an ED50 of 0.5 to 5 mg/kg. Still for that read-out and setting: then `C[C@](N)(CO)c1ccc2c(C(F)(F)F)c(O[C@H]3CC[C@@H](C4CCCC4)CC3)ccc2c1` [Example 100, (R)-2-Amino-2-[6-(cis-4-cyclopentyl-cyclohexyloxy)-5-trifluoromethyl-naphthalen-2-yl]-propan-1-ol], with over 5 mg/kg; and `C[C@](N)(CO)c1ccc2c(C(F)(F)F)c(O[C@H]3CC[C@H](C4CCCC4)CC3)ccc2c1` [Example 103, (R)-2-Amino-2-[6-(trans-4-cyclopentyl-cyclohexyloxy)-5-trifluoromethyl-naphthalen-2-yl]-propan-1-ol], with over 5 mg/kg. Same read-out and setting: then `CN[C@@](C)(CO)c1ccc2cc(OC3CCC(C(C)(C)C)CC3)ccc2c1` (stereo partly drawn) [Example 112, (R)-2-[6-(4-tert-butyl-cyclohexyloxy)-naphthalen-2-yl]-2-methylamino-propan-1-ol], with 0.5 to 5 mg/kg; and `C[C@@]1(c2ccc3c(C(F)(F)F)c(O)ccc3c2)COC(=O)N1` [Example 130, (R)-4-(6-hydroxy-5-(trifluoromethyl)naphthalen-2-yl)-4-methyloxazolidin-2-one], with over 5 mg/kg.

As to `CC(C)(C)[C@H]1CC[C@H](Oc2ccc3cc([C@]4(C)COC(=O)N4)ccc3c2C(F)(F)F)CC1` [Example 131, (R)-4-(6-(trans-4-tert-butylcyclohexyloxy)-5-(trifluoromethyl)naphthalen-2-yl)-4-methyloxazolidin-2-one], the 50% effective dose (ED50) was under 0.5 mg/kg. On the same count and under the same terms, to `C[C@](N)(CO)c1ccc2cc(OC3CCC4(CCCCC4)CC3)ccc2c1` [Example 133, (2R)-2-amino-2-(6-(spiro[5.5]undecan-3-yloxy)naphthalen-2-yl)propan-1-ol] belongs 0.5 to 5 mg/kg; to `C[C@](N)(CO)c1ccc2c(C(F)(F)F)c(OC3CCC4(CCCCC4)CC3)ccc2c1` [Example 139, (2R)-2-amino-2-(6-(spiro[5.5]undecan-3-yloxy)-5-(trifluoromethyl)naphthalen-2-yl)propan-1-ol], under 0.5 mg/kg; to `CC(C)(C)C1CCC(Cc2ccc3cc([C@@](C)(N)CO)ccc3c2)CC1` (stereo partly drawn) [Example 146, (R)-2-amino-2-(6-((4-tert-butylcyclohexyl)methyl)naphthalen-2-yl)propan-1-ol], 0.5 to 5 mg/kg. On the same count and under the same terms, to `CC(C)(C)[C@H]1CC[C@H](Oc2ccc3cc(C4(N)COC4)ccc3c2)CC1` [Example 151, 3-(6-(trans-4-tert-Butylcyclohexyloxy)naphthalen-2-yl)oxetan-3-amine] belongs 0.5 to 5 mg/kg; to `CC(C)(C)[C@H]1CC[C@H](Oc2ccc3cc(C4(N)COC4)ccc3c2C(F)(F)F)CC1` [Example 153, 3-(6-(trans-4-tert-butylcyclohexyloxy)-5-(trifluoromethyl)naphthalen-2-yl)oxetan-3-amine], under 0.5 mg/kg.
